The text below walks through data of patent US20060046976A1, “Method for increasing the bone mineral density and bone micro-architecture or connectivity of a mammal using N-acylated glucosamines” (priority 2004, published 2006).

For experiment [1], the system named is ovariectomised rats. As to the kind of experiment: Femoral and spine BMD by DXA in ovariectomised rats fed GlcNBu. The class given is in vivo, rat. As to conditions: 200 mg GlcNBu by mouth daily, 6 months. An excerpt:
This investigation was designed to test the effects of GlcNBu on the BMD of the femurs in an ovariectomised rat model. The experiments performed are described as follows.
FIGS. 1A and 1B show the effect of GlcNBu feeding on femoral BMD with time, over six months, in the ovariectomized rat. Both the top and bottom panels show the mean total designated herein as global BMD of the femurs for the 8 animals in each group, with time. The actual BMD values are shown on the vertical axes. FIG. 1A Glc-O represents the data from the ovariectomised rats fed with glucose and FIG. 1B GlcNBu-O represents data from the ovariectomised rats fed with GlcNBu. The sequential DXA scans for estimating BMD at times 0, 2 months, 4 months and 6 months are illustrated on the horizontal axis and designated as Sequential Scan number 1.0, 2.0. 3.0 and 4.0, respectively.
Sixteen ovariectomised rats (Charles River Laboratories), approximately 200 g in weight, were randomized into two groups. The control group received 200 mg of glucose, by mouth as single daily doses and the GlcNBu-treated group received 200 mg of GlcNBu by mouth, as single daily doses, for a total period of six (6) months. A similar group of non-ovariectomised animals was fed with GlcNBu or glucose at the same doses. […] Consistent position of the femurs was assured with a pre-determined grid. […]

Experiment [2] deals with SCW-arthritis rats. The experiment in a line: Three-dimensional isosurface of tibia (bone erosion), SCW-arthritis rats. As to conditions: GlcNBu treated, especially high dose. The experiment is classed as in vivo, Lewis type rats. The text has this:
In this experiment performed and described herein, there were four groups of Lewis type rats, consisting of eight (8) animals in each group. Lewis type rats had experimental arthritis induced by a single intra-peritoneal injection of streptococcal cell wall antigen (SCW). This type of arthritis has an acute and chronic phase and affects mostly the distal joints in the hind limbs of the animals, and, less so, the knees and hips. Groups 1-3, inclusive, had inflammatory arthritis induced. The compound used in the experiment was used to supplement normal rat chow feed on a daily basis. Feed and water were unrestricted. […] All the dissected femurs and tibiae were scanned with dual energy x-ray absorptiometry (DXA) were measured at the distal femur, and proximal tibia using a user defined region of interest (ROI). • Micro-CT imaging protocol. […] The reconstructed tibia images were analyzed with MicroView 2.0 software (GE Healthcare, London, ON) in two and three dimensions. • Three-dimensional trabecular bone measurements. […] On 3D analysis, the tissue volume (3D-TV, mm3) and trabecular bone volume (3D-BV, mm3) were measured directly, and the fractional trabecular bone volume (3D-BV/TV, %) was calculated. […]

Take `CCCC(=O)N[C@H]1C(O)O[C@H](CO)[C@@H](O)[C@@H]1O` (stereo partly drawn) [GlcNBu, N-butyryl-D-glucosamine]: the “BMD of the spines vs glucose-fed” value in experiment [1] (data not shown) is recorded as “the differences were not reach statistical significance”. Besides, the “femoral BMD (global) plateau vs control (glucose-fed) rats” value in experiment [1] (plateau after 4 months, p<0.05) is “significantly higher”. For the same compound, the “bone erosion at the joint margin (isosurfaces)” value in experiment [2] is listed as “effectively protects bone from further erosion”.
